Experimental data taken from the supplement of paper PMC11451515.

System: SEM cells
Assay: cell viability relative to DMSO control; higher = less cytotoxic
Conditions: 48 h
Summary of the method: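 Leukemia cells (NOMO1 or SEM, 500 cells/well; P12-Ichikawa, 1000 cells/well) were seeded in 5 μl in 1536-well plates after at least four passages of adaptation to each medium. They received library compounds in DMSO by pin dosing, 11 threefold points from 47 μM to 0.79 nM. Luminescence with CellTiter-Glo One was read after 48 h at 37°C. Viability is stated per plate relative to DMSO wells, with cell-free wells as background.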

[1] = HPLM + 10% dialyzed FBS, 0.000781 µM
[2] = HPLM + 10% dialyzed FBS, 0.00234 µM
[3] = HPLM + 10% dialyzed FBS, 0.00702 µM
[4] = HPLM + 10% dialyzed FBS, 0.0211 µM
[5] = HPLM + 10% dialyzed FBS, 0.0632 µM
[6] = HPLM + 10% dialyzed FBS, 0.19 µM
[7] = HPLM + 10% dialyzed FBS, 0.569 µM
[8] = HPLM + 10% dialyzed FBS, 1.71 µM
[9] = HPLM + 10% dialyzed FBS, 5.12 µM
[10] = HPLM + 10% dialyzed FBS, 15.4 µM
[11] = HPLM + 10% dialyzed FBS, 46.1 µM
[12] = RPMI 5 mM glucose + 10% FBS, 0.000781 µM
[13] = RPMI 5 mM glucose + 10% FBS, 0.00234 µM
[14] = RPMI 5 mM glucose + 10% FBS, 0.00702 µM
[15] = RPMI 5 mM glucose + 10% FBS, 0.0211 µM
[16] = RPMI 5 mM glucose + 10% FBS, 0.0632 µM
[17] = RPMI 5 mM glucose + 10% FBS, 0.19 µM
[18] = RPMI 5 mM glucose + 10% FBS, 0.569 µM
[19] = RPMI 5 mM glucose + 10% FBS, 1.71 µM
[20] = RPMI 5 mM glucose + 10% FBS, 5.12 µM
[21] = RPMI 5 mM glucose + 10% FBS, 15.4 µM
[22] = RPMI 5 mM glucose + 10% FBS, 46.1 µM
[23] = RPMI 5 mM glucose + 10% dialyzed FBS, 0.000781 µM
[24] = RPMI 5 mM glucose + 10% dialyzed FBS, 0.00234 µM
[25] = RPMI 5 mM glucose + 10% dialyzed FBS, 0.00702 µM
[26] = RPMI 5 mM glucose + 10% dialyzed FBS, 0.0211 µM
[27] = RPMI 5 mM glucose + 10% dialyzed FBS, 0.0632 µM
[28] = RPMI 5 mM glucose + 10% dialyzed FBS, 0.19 µM
[29] = RPMI 5 mM glucose + 10% dialyzed FBS, 0.569 µM
[30] = RPMI 5 mM glucose + 10% dialyzed FBS, 1.71 µM
[31] = RPMI 5 mM glucose + 10% dialyzed FBS, 5.12 µM
[32] = RPMI 5 mM glucose + 10% dialyzed FBS, 15.4 µM
[33] = RPMI 5 mM glucose + 10% dialyzed FBS, 46.1 µM

SMILES	cell viability [1] [%]	cell viability [2] [%]	cell viability [3] [%]	cell viability [4] [%]	cell viability [5] [%]	cell viability [6] [%]	cell viability [7] [%]	cell viability [8] [%]	cell viability [9] [%]	cell viability [10] [%]	cell viability [11] [%]	cell viability [12] [%]	cell viability [13] [%]	cell viability [14] [%]	cell viability [15] [%]	cell viability [16] [%]	cell viability [17] [%]	cell viability [18] [%]	cell viability [19] [%]	cell viability [20] [%]	cell viability [21] [%]	cell viability [22] [%]	cell viability [23] [%]	cell viability [24] [%]	cell viability [25] [%]	cell viability [26] [%]	cell viability [27] [%]	cell viability [28] [%]	cell viability [29] [%]	cell viability [30] [%]	cell viability [31] [%]	cell viability [32] [%]	cell viability [33] [%]
OC[C@H]1O[C@@H](Oc2cc(O)cc(/C=C/c3ccc(O)cc3)c2)[C@H](O)[C@@H](O)[C@@H]1O	71.9	89.5	97.3	105	101	108	108	108	95.4	116	115	79.3	102	89.7	104	97.4	110	85.7	102	117	119	104	86.2	104	94	102	93.2	104	102	119	114	117	114
NC(=O)Nc1cc(-c2cccc(F)c2)sc1C(=O)N[C@H]1CCCNC1	88.8	62	66.4	46.3	38.2	28.6	27.5	27.1	23.3	19	20.3	110	84.4	71.6	45.2	45	37.6	32.7	27.7	20.4	11.3	13.7	98.9	69.4	52.4	44.5	32.2	26.3	25.5	21.3	16.7	12.4	10.6
COc1ncc(-c2ccc3c(Nc4cc(Oc5cc(F)cc(F)c5)cc(C(=O)O)c4)c([S+](=O)([O-])NC4CC4)cnc3c2)c(OC)n1	90.4	78.2	77.5	86	85.2	79.4	88.1	82.2	75.5	78	71.5	135	107	117	133	130	119	138	100	109	119	113	102	83.5	79.7	88.6	85	89.7	97.5	75.4	82.1	104	67.9
CC(NCCc1ccc(O)cc1)C(O)c1ccc(O)cc1 (stereo unspecified)	84.4	80.5	73	89	86.1	84.1	74.6	98.7	90.7	105	84.8	106	110	109	111	97.5	103	92.5	107	98.2	103	99.4	133	119	122	118	117	110	90.6	112	105	111	81.9
OCCC#Cc1nc(-c2ccc(F)cc2)c(-c2ccncc2)n1CCCc1ccccc1	86.8	115	115	120	118	109	131	123	124	105	88.4	98.3	122	112	118	103	130	116	127	126	107	85.8											
COc1cc(CNC(=O)CCCC/C=C/C(C)C)ccc1O	88.8	92.6	104	99	101	96.6	79.7	36.7	32.9	29.7	18.6	110	110	121	123	107	111	56.7	19.3	21.4	15.9	12.5	94.3	93.2	98.7	101	94.6	93.8	86.6	23.6	27.2	19	15.4
N#C/C(C(=O)c1ccc(Cl)cc1Cl)=C1/NC(=O)c2ccc(Cl)cc2N1	124	132	124	125	129	121	123	112	110	117	111												99.5	125	131	126	127	108	111	137	79.5	105	108
CC1(C)C(N(O)C(=O)Nc2ccc(Cl)cc2)N(c2ccc(Cl)cc2)C(=O)N1CC(=O)N/N=C/C=C/c1ccc([N+](=O)[O-])o1 (stereo unspecified)	128	117	120	119	122	81.4	110	117	52.7	107	3.81												114	115	111	113	121	91.6	104	99.1	30.9	80.8	2.64
